The source of these data is ChEMBL document CHEMBL3603836, “Hybrid pyrimidine alkynyls inhibit the clinically resistance related Bcr-Abl(T315I) mutant” (Bioorg Med Chem Lett, 2015).

One series has as its system K562. Briefly: cells. The settings on record: Homo sapiens, K562, 72 h.
The nature of the next series: cells. The settings on record: Mus musculus, BaF3, 72 h.
Series [1] deals with Bcr/Abl fusion protein (Homo sapiens, UniProt P00519, T315I). Format: protein assay.
Series [2] is described as follows: Antiproliferative activity against mouse BA/F3 cells expressing wild type Bcr-Abl after 72 hrs by CCK-8 assay. The settings on record: BaF3, 72 h. The series is classed as functional, cell-based.
For series [3], the target named is Bcr/Abl fusion protein (Homo sapiens, UniProt P00519). Format: protein assay.
Description: Inhibition of wild type Bcr-Abl (unknown origin) using Tyr2 peptide substrate after 2 hrs by FRET-based Z'-lyte assay
Series [4] can be described thus: Cmax in Sprague-Dawley rat at 25 mg/kg, po. Format: ADME, organism-based. Details: dose 25 mg/kg, route oral. The settings on record: in vivo.
Series [5] has as its system Rattus norvegicus. Briefly: AUC (0 to infinity) in Sprague-Dawley rat at 25 mg/kg, po. The series is classed as ADME, organism-based. Details: dose 25 mg/kg, time infinity, route oral. The settings on record: in vivo.
Series [6] in a line: Cmax in Sprague-Dawley rat at 10 mg/kg, iv. The settings on record: in vivo. The series is classed as ADME, organism-based. Details: dose 10 mg/kg, route intravenous.
A short description of series [7]: Tmax in Sprague-Dawley rat at 10 mg/kg, iv. The settings on record: in vivo. The series is classed as ADME, organism-based.
The nature of series [8]: Half life in Sprague-Dawley rat at 25 mg/kg, po. The series is classed as ADME, organism-based. The settings on record: in vivo.
The nature of series [9]: Tmax in Sprague-Dawley rat at 25 mg/kg, po. The settings on record: in vivo. The series is classed as ADME, organism-based.
Series [10] can be described thus: Half life in Sprague-Dawley rat at 10 mg/kg, iv. The series is classed as ADME, organism-based. The settings on record: in vivo.
Series [11] relates to Rattus norvegicus. Kind of series: AUC (0 to infinity) in Sprague-Dawley rat at 10 mg/kg, iv. Details: dose 10 mg/kg, time infinity, route intravenous. The settings on record: in vivo. The series is classed as ADME, organism-based.

Description for K562: Antiproliferative activity against human K562 cells expressing wild type Bcr-Abl after 72 hrs by CCK-8 assay

In general, IC50 refers to the concentration needed to halve the response being measured. High values mean lower potency, low ones higher potency. For `Cc1cn(-c2cc(NC(=O)c3ccc(C)c(Nc4nccc(-c5cccnc5)n4)c3)cc(C(F)(F)F)c2)cn1` [NILOTINIB], in the series on K562, half-maximal inhibition (IC50) was put at 22 nM.

Regarding `Cc1cn(-c2cc(NC(=O)c3ccc(C)c(C#Cc4cnc(NC(C)(C)C)nc4)c3)cc(C(F)(F)F)c2)cn1`, the IC50 in “cells” was found to be 135 nM; in the series on K562, 23 nM; against Bcr/Abl fusion protein [1], 24 nM; in [2], 38 nM; against Bcr/Abl fusion protein [3], 28 nM.

Turning to `Cc1cn(-c2cc(NC(=O)c3ccc(C)c(C#Cc4cnc(NCCO)nc4)c3)cc(C(F)(F)F)c2)cn1`, the concentration for half-maximal inhibition (IC50) in “cells” came to 1080 nM; with K562, 13 nM; on Bcr/Abl fusion protein [1], 19 nM; in series [2], 17 nM; against Bcr/Abl fusion protein [3], 18 nM.

Turning to `Cc1ccc(NC(=O)c2ccc(CN3CCN(C)CC3)cc2)cc1Nc1nccc(-c2cccnc2)n1` [IMATINIB], the half-inhibitory concentration (IC50) was greater than 1000 nM in the series “cells” and 280 nM in the series with K562.

Turning to `Cc1cn(-c2cc(NC(=O)c3ccc(C)c(C#Cc4cnc(NC5CCCCC5)nc4)c3)cc(C(F)(F)F)c2)cn1`, the IC50 in “cells” turned out to be 2710 nM; in the series with K562 it was 30 nM; at Bcr/Abl fusion protein [1], 458 nM; in series [2] it was 49 nM; against Bcr/Abl fusion protein [3] it was 93 nM.

Take `Cc1cn(-c2cc(NC(=O)c3ccc(C)c(C#Cc4cnc(Nc5ccccc5)nc4)c3)cc(C(F)(F)F)c2)cn1`: the half-maximal inhibitory concentration (IC50) in “cells” is 2400 nM; in the series on K562, 111 nM; against Bcr/Abl fusion protein [1], 161 nM; in series [2], 208 nM; against Bcr/Abl fusion protein [3], 238 nM.

As to `Cc1nc(Nc2ncc(C(=O)Nc3c(C)cccc3Cl)s2)cc(N2CCN(CCO)CC2)n1` [DASATINIB], the values for the 50% inhibitory concentration (IC50) in “cells” and with K562 were greater than 1000 nM and 1 nM, respectively.

For `Cc1cn(-c2cc(NC(=O)c3ccc(C)c(C#Cc4cnc(N)nc4)c3)cc(C(F)(F)F)c2)cn1`, the concentration for half-maximal inhibition (IC50) in “cells” was 78 nM; in the series with K562, 1 nM; at Bcr/Abl fusion protein [1], 7 nM; in [2], 2 nM; against Bcr/Abl fusion protein [3], 8 nM.

The term Cmax denotes the maximum level reached in the sampled fluid or tissue. By Tmax is commonly meant the time at which the peak concentration occurs. Usually half-life stands for the time in which the quantity being followed falls by half. A higher half-life goes with slow loss. For the compound `CNc1ncc(C#Cc2cc(C(=O)Nc3cc(-n4cnc(C)c4)cc(C(F)(F)F)c3)ccc2C)cn1`, the half-maximal inhibitory concentration (IC50) turned out to be 85 nM in “cells”; 7 nM with K562; 6 nM on Bcr/Abl fusion protein [1]; 3 nM in [2]; 10 nM on Bcr/Abl fusion protein [3]. For the same compound, the Cmax came out at 3090 ng/mL in series [4] and 11000 ng/mL in series [6]. Further, the AUC in the series with Rattus norvegicus [5] was 48574 µg/L/h; in the series with Rattus norvegicus [11], 35809 µg/L/h. Also, the time of peak concentration (Tmax) in [7] came out at 1.98 min; in series [9] it was 2 h. Besides, the half-life in [8] was 7.8 h; in series [10], 7.5 h.

For the compound `Cc1cn(-c2cc(NC(=O)c3ccc(C)c(C#Cc4cnc(N5CCCCC5)nc4)c3)cc(C(F)(F)F)c2)cn1`, the IC50 in “cells” is greater than 10000 nM; in the series with K562, 640 nM; at Bcr/Abl fusion protein [1], greater than 1000 nM; in series [2] it was 683 nM; on Bcr/Abl fusion protein [3], 904 nM.

Take `Cc1cn(-c2cc(NC(=O)c3ccc(C)c(C#Cc4cnc(NC(C)C)nc4)c3)cc(C(F)(F)F)c2)cn1`: the half-maximal inhibitory concentration (IC50) in the series “cells” came to 1160 nM; in the series on K562, 27 nM; against Bcr/Abl fusion protein [1], 187 nM; in [2] it was 23 nM; against Bcr/Abl fusion protein [3] it was 125 nM.

Turning to `CCNc1ncc(C#Cc2cc(C(=O)Nc3cc(-n4cnc(C)c4)cc(C(F)(F)F)c3)ccc2C)cn1`, the half-inhibitory concentration (IC50) in “cells” worked out at 113 nM; in the series with K562, 6 nM; on Bcr/Abl fusion protein [1] it was 19 nM; in [2], 8 nM; against Bcr/Abl fusion protein [3], 30 nM.

With `Cc1cn(-c2cc(NC(=O)c3ccc(C)c(C#Cc4cnc(N5CCOCC5)nc4)c3)cc(C(F)(F)F)c2)cn1`, the IC50 in the series “cells” is 8430 nM; in the series with K562 it was 355 nM; on Bcr/Abl fusion protein [1], greater than 1000 nM; in series [2] it was 292 nM; at Bcr/Abl fusion protein [3] it was 300 nM.

On to `Cc1cn(-c2cc(NC(=O)c3ccc(C)c(C#Cc4cnc(N5CCCC5)nc4)c3)cc(C(F)(F)F)c2)cn1`, for which the half-inhibitory concentration (IC50) is greater than 10000 nM in the series “cells”; greater than 925 nM with K562; greater than 1000 nM at Bcr/Abl fusion protein [1]; greater than 1000 nM in series [2]; greater than 1000 nM on Bcr/Abl fusion protein [3].
